Experimental data: US20250313635A1, “ANTI-INTEGRIN ANTIBODIES AND USES THEREOF” (Merck Sharp & Dohme LLC, priority 2022, published 2025)

Tests used:
[1] = Plasma PK analysis in bleomycin model (LC-MS/MS); format: in vivo; conditions: mouse, two hours after the last dose at end of study; MK-0429 200 mpk osmotic minipump, Nintedanib 60 mpk po qd
Method: Mice at 12˜13 weeks of age were randomized to five groups: saline, bleomycin instillation with vehicle (osmotic minipump), bleomycin instillation with MK-0429 treatment, bleomycin instillation with vehicle oral treatment, and bleomycin instillation with Nintedanib treatment. All mice were anaesthetized with isoflurane. Bleomycin was dosed by intratracheal (i.t) instillation in a volume of 50 μL, at a dose of 1 unit/kg body weight. After instillation, mice were kept in a heads-up position for 2-5 minutes before putting into cages. MK-0429 (200 mg/kg) was administered by Osmotic pump from day 5 to day 14 and Nintedanib (60 mg/kg) was administered, p.o., q.d., for 14 days. Vehicle was dosed orally at 10 am daily from the day 5 to the end of the studies and dosing volume was 10 mL/kg. For plasma PK analysis, an aliquot of 50 μL plasma was spiked into a 96-well plate, and 200 μL of acetonitrile containing internal standard were added for protein precipitation. The mixture was vortexed, centrifuged at 4000 rpm for 20 minutes. Then 50 μL of supernatant fraction was mixed with 200 μL H2O and the final solution were injected for LC-MS/MS analysis. The methods for quantitative analysis were developed on UPLC (Waters) chromatographic system equipped with an API4000 QTrap™ mass spectrometer (Applied Biosystems, Concord, Ontario, Canada). […]

[2] = system: bleomycin-induced lung fibrosis mouse model; assay: Mouse bleomycin lung fibrosis model; format: in vivo; conditions: MK-0429 200 mpk osmotic minipump, Nintedanib 60 mpk po qd
Method: Mouse bleomycin lungfibrosis models. Adult male C57BL/6 mice (Taconic, Rensselaer, NY) were housed in a temperature and humidity-controlled facility with a 12-hour light: 12-hour dark cycle. Animals had ad libitum access to food (Purina Rodent Chow 5053, LabDiet, St. Louis, MO) and water. All procedures utilizing experimental animals were conducted in accordance with the Guide for the Care and Use of Laboratory Animals, and experimental procedures were reviewed and approved by the Institutional Animal Care and Use Committee at MRL, Kenilworth, NJ.
For osmotic minipump implantation, trifluoroacetate (TFA) salt of MK-0429 was formulated in 50% dimethylsulfoxide (DMSO)/50% H2O at a concentration of 416 mg/mL. MK-0429 or vehicle solution were filled in minipumps (Alzet, #1007D, flow rate 0.5 μL/hour). Minipumps were placed in mice subcutaneously in a pocket on the back between the shoulder blades. A small incision was made and a subcutaneous pocket formed by blunt dissection. A sterile minipump was inserted into the subcutaneous pocket. The incision was closed with staples or non-absorbable suture or absorbable (subcuticular) suture. The minipumps were used for continuous drug delivery for two weeks.
Mice at 12˜13 weeks of age were randomized to five groups: saline, bleomycin instillation with vehicle (osmotic minipump), bleomycin instillation with MK-0429 treatment, bleomycin instillation with vehicle oral treatment, and bleomycin instillation with Nintedanib treatment. All mice were anaesthetized with isoflurane. Bleomycin was dosed by intratracheal (i.t) instillation in a volume of 50 μL, at a dose of 1 unit/kg body weight. After instillation, mice were kept in a heads-up position for 2-5 minutes before putting into cages. MK-0429 (200 mg/kg) was administered by Osmotic pump from day 5 to day 14 and Nintedanib (60 mg/kg) was administered, p.o., q.d., for 14 days. Vehicle was dosed orally at 10 am daily from the day 5 to the end of the studies and dosing volume was 10 mL/kg. For plasma PK analysis, an aliquot of 50 μL plasma was spiked into a 96-well plate, and 200 μL of acetonitrile containing internal standard were added for protein precipitation. The mixture was vortexed, centrifuged at 4000 rpm for 20 minutes. Then 50 μL of supernatant fraction was mixed with 200 μL H2O and the final solution were injected for LC-MS/MS analysis. The methods for quantitative analysis were developed on UPLC (Waters) chromatographic system equipped with an API4000 QTrap™ mass spectrometer (Applied Biosystems, Concord, Ontario, Canada). Analyst 1.5 software packages (Applied Biosystems) were used to control the LC-MS/MS system and data acquisition and processing.
Histopathology analysis. Upon completion of the study, animals were euthanized and tissues were collected for histological assessment. Lung tissues were perfused with 10% formalin, fixed for 24 hours, and then paraffin embedded. Tissue sections were stained with hematoxylin & eosin (H&E) and Masson's trichrome, subsequently evaluated under light microscope. The severity of histopathologic changes and fibrosis in the lung were graded as described previously by pathologists (Ashcroft et al., J. Clin. Pathol. 41, 467-470 (1988); Hubner et al., Biotechniques 44(507-511), 514-607 (2008)). Following deparaffinization and rehydration, each lung tissue section was processed to identify αSMA deposition by immunohistochemistry. The primary antibodies used were αSMA antibody from Sigma. The Aperio ScanScope™ XT Slide Scanner (Aperio Technologies) system was used to capture whole slide digital images with a 20×objective. Digital images were managed using Aperio Spectrum™. The positive stains were identified and quantified using a macro created from a color deconvolution algorithm (Aperio Technologies). Statistical analysis was performed by using One-way ANOVA followed by Tukey's test.

[3] = system: Normal human lung fibroblasts; assay: αSMA imaging, TGFβ-induced αSMA expression; format: cell-based; conditions: TGFβ 5 ng/mL, pre-treated 30 minutes, MK-0429 (10 µM) or SB-525334 (10 μM), 48 hours
Method: αSMA imaging. Primary cells (passage 3-5) were grown on Cell carrier Ultra, collagen Type 1 coated 96-well plates (Perkin Elmer, #6055700) at a density of 25,000 cells/well. Once the cells adhere, they were starved in serum free media for 24 hours followed by addition of treatments, i.e., 5 ng/mL TGFβ (Biolegend #580702)±inhibitors. Cells were pre-treated with inhibitors for 30 minutes prior to the addition of TGFβ stimulation. 48 hours post treatment, the cells were fixed in 4% methanol free paraformaldehyde (ThermoFisher Scientific #28908) for 20 minutes at room temperature and incubated with anti-alpha smooth muscle Actin antibody (Abcam #ab7817) at 1:4000 overnight at 4° C. Following primary antibody incubation, cells were incubated with Goat anti-mouse secondary antibody (ThermoFisher Scientific #A32723) at 1:500 and Hoechst (ThermoFisher Scientific #62249) at 1:1000 for one hour at RT. The fixed and stained cells were images for immunofluorescence on Perkin Elmer's Opera Phenix high content Imager.

[4] = 14 days treatment, vs BLM-vehicle

mean plasma concentration [1] | Structure (SMILES) | body weight difference vs bleomycin group [2] | BALF TIMP-1 content [2, 4] | bleomycin-induced αSMA expression (IHC) [2, 4] | inflammation in the lung [2, 4] | modified Ashcroft score [2, 4] | αSMA intensity and the percentage of stimulated cells following TGFβ treatment [3]
656+229 ng/mL | COC(=O)c1ccc2c(c1)NC(=O)/C2=C(\Nc1ccc(N(C)C(=O)CN2CCN(C)CC2)cc1)c1ccccc1 [Nintedanib, reference compound] | no significant body weight difference | significantly decreased | significantly decreased | decreased inflammation | significantly improved | 
 | Cc1cccc(-c2[nH]c(C(C)(C)C)nc2-c2ccc3nccnc3c2)n1 [SB-525334, reference compound] |  |  |  |  |  | significantly reduced
